# Results published in ChEMBL document CHEMBL5120860, “Ansellone J, a Potent in Vitro and ex Vivo HIV-1 Latency Reversal Agent Isolated from a Phorbas sp. Marine Sponge” (J Nat Prod, 2022).
# Tests used:
# [1] = Inhibition of HIV-1 latency reversal in GFP-fused human J-lat 9.2 cells at 3 uM incubated for 24 hrs in presence of pan-PKC inhibitor Go 6983 by flow cytometry analysis relative to control; assay type: functional; conditions: Human immunodeficiency virus 1, J-Lat 9.2
# [2] = tested on: Human immunodeficiency virus 1; assay: Reversal of HIV-1 latency infected in GFP-fused human J-Lat 9.2 cells assessed as increase in GFP expression at 10 uM incubated for 24 hrs by flow cytometry analysis relative to control; assay type: functional
# [3] = tested on: Human immunodeficiency virus 1; assay: Reversal of HIV-1 latency infected in GFP-fused human J-Lat 9.2 cells assessed as increase in GFP expression at 30 uM incubated for 24 hrs by flow cytometry analysis relative to control; assay type: functional
# [4] = Inhibition of HIV-1 latency reversal in GFP-fused human J-lat 9.2 cells at 10 uM incubated for 24 hrs in presence of pan-PKC inhibitor Go 6983 by flow cytometry analysis relative to control; assay type: functional; conditions: Human immunodeficiency virus 1, J-Lat 9.2
# [5] = tested on: Human immunodeficiency virus 1; assay: Reversal of HIV-1 latency in human CD4+ T cells derived from cARC-suppressed donors with HIV assessed as fold increase in viral RNA copies measured per ml of supernatant at 1 uM incubated for 24 hrs by qRT-PCR analysis; assay type: functional, CD4+ve Th
# [6] = Cytotoxicity against human CD4+ T cells derived from cARC-suppressed donors with HIV assessed as cell viability at 1 uM incubated for 24 hrs by trypan blue staining based analysis relative to control; assay type: toxicity, CD4+ve Th; conditions: primary CD4+ T cells from cART-suppressed donors with HIV, read-out: Activity
# [7] = tested on: Human immunodeficiency virus 1; assay: Reversal of HIV-1 latency in human CD4+ T cells derived from cARC-suppressed donors with HIV assessed as increase in viral RNA copies measured per ml of supernatant at 1 uM incubated for 24 hrs by qRT-PCR analysis (reference value: 191 +/- 321); assay type: functional, CD4+ve Th
# [8] = tested on: Human immunodeficiency virus 1; assay: Reversal of HIV-1 latency infected in GFP-fused human J-Lat 9.2 cells assessed as increase in GFP expression at 3 uM incubated for 24 hrs by flow cytometry analysis relative to control; assay type: functional
# [9] = Inhibition of HIV-1 latency reversal in GFP-fused human J-lat 9.2 cells at 1 uM incubated for 24 hrs in presence of pan-PKC inhibitor Go 6983 by flow cytometry analysis relative to control; assay type: functional; conditions: Human immunodeficiency virus 1, J-Lat 9.2
# [10] = tested on: Human immunodeficiency virus 1; assay: Reversal of HIV-1 latency in human CD4+ T cells derived from cARC-suppressed donors with HIV assessed as increase in viral RNA copies measured per ml of supernatant at 10 uM incubated for 24 hrs by qRT-PCR analysis (reference value: 191 +/- 321); assay type: functional, CD4+ve Th
# [11] = tested on: Human immunodeficiency virus 1; assay: Reversal of HIV-1 latency in human CD4+ T cells derived from cARC-suppressed donors with HIV assessed as fold increase in viral RNA copies measured per ml of supernatant at 10 uM incubated for 24 hrs by qRT-PCR analysis; assay type: functional, CD4+ve Th
# [12] = Cytotoxicity against human CD4+ T cells derived from cARC-suppressed donors with HIV assessed as cell viability at 10 uM incubated for 24 hrs by trypan blue staining based analysis relative to control; assay type: toxicity, CD4+ve Th; conditions: primary CD4+ T cells from cART-suppressed donors with HIV, read-out: Activity
structure (smiles),measurement,setting,value
CC(=O)O[C@H]1C[C@]2(C)c3cc(C)c(O)cc3C(C)=CC(=O)[C@@H]2[C@@]2(C)CCCC(C)(C)[C@H]12,inhibition at 3 µM,[1],> 95%
same,Activity,[2],36.8%
CC(=O)O[C@]1(C)C[C@@H](/C=C(\C)CCC=C(C)C)O[C@@]2(C=C(CO)[C@H]3CC(=O)C(C)=C[C@H]3O2)C1,Activity,[3],26.2%
same,inhibition at 10 µM,[4],> 90%
CC1=C[C@H]2O[C@@H]([C@@H]3[C@@]4(C)CCCC(C)(C)[C@@H]4C=C[C@@]3(C)O)C=C(CO)[C@H]2CC1=O,fold change (FC),[5],2.7
same,"viability at 24 h, 1 µM",[6],82.4%
same,Activity,[7],519
same,Activity,[8],27.3%
same,inhibition at 1 µM,[9],> 95%
CC(=O)O[C@@]12C[C@@H](C)[C@@]3(O)[C@@H](C=C(CO)C[C@]4(O)C(=O)C(C)=C[C@@H]34)[C@@H]1C2(C)C [PROSTRATIN],Activity,[3],11.7%
same,Activity,[2],11.1%
same,Activity,[10],685
same,inhibition at 10 µM,[4],> 90%
same,fold change (FC),[11],2.8
same,"viability at 24 h, 10 µM",[12],84%
